Target: T1, human LPA1 (Homo sapiens, UniProt Q92633)
T1 construct: the full-length cDNA for human LPA1 was obtained by PCR of the reverse transcription reaction; expressed in transfected cells
Experiment: LPA1 calcium flux assay
Type: cell-based
Settings: CHO cells expressing human LPA1, stimulated with 10 nM LPA; read-out: HLPA1 Ca Flux IC50
Method: A 1.1 kb cDNA encoding the human LPA1 receptor was cloned from human lung. Human lung RNA (Clontech Laboratories, Inc. USA) was reverse transcribed using the RETROscript kit (Ambion, Inc.) and the full-length cDNA for human LPA1 was obtained by PCR of the reverse transcription reaction. The nucleotide sequence of the cloned human LPA1 was determined by sequencing and confirmed to be identical to the published human LPA1 sequence (An et al. Biochenm. Biophys. Res. Commun. 231:619 (1997). The cDNA was cloned into the pCDNA5/FRT expression plasmid and transfected in CHO cells using lipofectamine 2000 (Invitrogen Corp., USA). Clones stably expressing human LPA1 were selected using hygromycin and identified as cells that show Ca-influx in response to LPA.
Human LPA1 or LPA3 expressing CHO cells are seeded at 20,000-45,000 cells per well in a 96-well poly-D-lysine coated plate one or two days before the assay. Prior to the assay, the cells are washed once with PBS and then cultured in serum-free media overnight. On the day of the assay, a calcium indicator dye (Calcium 4, Molecular Devices) in assay buffer (HBSS with Ca^2+ and Mg^2+ and containing 20 mM Hepes and 0.3% fatty-acid free human serum albumin) is added to each well and incubation continued for 1 hour at 37° C. 10 μl of test compounds in 2.5% DMSO are added to the cells and incubation continued at room temperature for 30 minutes. Cells are the stimulated by the addition of 10 nM LPA and intracellular Ca^2+ measured using the Flexstation 3 (Molecular Devices). IC50s are determined using Graphpad prism analysis of drug titration curves.

T1 sequence (Q92633 whole entry): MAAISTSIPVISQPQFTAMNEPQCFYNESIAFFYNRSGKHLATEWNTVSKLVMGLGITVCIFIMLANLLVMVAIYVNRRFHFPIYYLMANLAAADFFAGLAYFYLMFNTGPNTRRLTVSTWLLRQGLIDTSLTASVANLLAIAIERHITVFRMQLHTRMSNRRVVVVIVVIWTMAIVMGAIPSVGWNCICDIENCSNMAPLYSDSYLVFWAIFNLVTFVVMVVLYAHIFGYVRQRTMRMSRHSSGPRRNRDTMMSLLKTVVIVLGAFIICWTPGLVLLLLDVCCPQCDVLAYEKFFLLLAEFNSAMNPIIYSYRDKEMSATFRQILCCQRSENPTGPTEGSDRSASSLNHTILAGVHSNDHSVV

For `Cc1noc(-c2ccc(-c3ccc(C4(C(=O)O)CC4)cc3)cc2)c1NC(C)C(O)Cc1ccccc1` (single isomer, unassigned) [Compound 1-283, 1-{4′-[4-(2-Hydroxy-1-methyl-3-phenyl-propylamino)-3-methyl-isoxazol-5-yl]-biphenyl-4-yl}-cyclopropanecarboxylic acid], which IC50 is on record?
Its IC50 is < 0.3 µM.

How did the IC50 turn out when `Cc1noc(-c2ccc(-c3ccc(C4(C(=O)O)CC4)cc3)cc2)c1CCC(=O)N(C)C(C)c1ccccc1` (stereo in doubt) [Compound 1-117, 1-[4′-(3-Methyl-4-{2-[methyl-((R)-1-phenyl-ethyl)-carbamoyl]-ethyl}-isoxazol-5-yl)-biphenyl-4-yl]-cyclopropanecarboxylic acid] was run?
The IC50 was 1 to 50 µM.

`Cc1noc(-c2ccc(-c3cccc(C(=O)O)c3)cc2)c1NC(=O)CCc1ccccc1` [Compound 1-1, 4′-[3-Methyl-4-(3-phenyl-propionylamino)-isoxazol-5-yl]-biphenyl-3-carboxylic acid] was tested. Which IC50 did it give?
Its IC50 is 1 to 50 µM.

How did the IC50 turn out when `Cc1noc(-c2ccc(-c3cccc(C(=O)O)c3)cc2)c1NC(=O)NCc1ccccc1` [Compound 1-2, 4′-[4-(3-Benzyl-ureido)-3-methyl-isoxazol-5-yl]-biphenyl-3-carboxylic acid] was run?
Its IC50 is 1 to 50 µM.

How did the IC50 turn out when `Cc1noc(-c2ccc(-c3ccc(C4(C(=O)O)CC4)cc3)cc2)c1NC(=O)CC(C)C` [Compound 1-3, 1-{4′-[3-Methyl-4-(3-methyl-butyrylamino)-isoxazol-5-yl]-biphenyl-4-yl}-cyclopropanecarboxylic acid] was run?
Its IC50 is 1 to 50 µM.

`Cc1noc(-c2ccc(-c3ccc(C4(C(=O)O)CC4)cc3)cc2)c1NC(=O)CCc1ccccc1` [Compound 1-4, 1-{4′-[3-Methyl-4-(3-phenyl-propionylamino)-isoxazol-5-yl]-biphenyl-4-yl}-cyclopropanecarboxylic acid] was tested. Which IC50 did it give?
The IC50 was 1 to 50 µM.

With `Cc1noc(-c2ccc(-c3ccc(C4(C(=O)O)CC4)cc3)cc2)c1NC(=O)COc1ccccc1` [Compound 1-5, 1-{4′-[3-Methyl-4-(2-phenoxy-acetylamino)-isoxazol-5-yl]-biphenyl-4-yl}-cyclopropanecarboxylic acid] as the compound, how does the IC50 read?
The IC50 was 1 to 50 µM.

With `Cc1noc(-c2ccc(-c3ccc(C4(C(=O)O)CC4)cc3)cc2)c1NC(=O)NCc1ccccc1` [Compound 1-6, 1-{4′-[4-(3-Benzyl-ureido)-3-methyl-isoxazol-5-yl]-biphenyl-4-yl}-cyclopropanecarboxylic acid] as the compound, how does the IC50 read?
Its IC50 is < 0.3 µM.

For `Cc1noc(-c2ccc(-c3ccc(C4(C(=O)O)CC4)cc3)cc2)c1NC(=O)NC(C)(C)C` [Compound 1-7, 1-{4′-[4-(3-tert-Butyl-ureido)-3-methyl-isoxazol-5-yl]-biphenyl-4-yl}-cyclopropanecarboxylic acid], which IC50 is on record?
Its IC50 is < 0.3 µM.

With `Cc1noc(-c2ccc(-c3ccc(C4(C(=O)O)CC4)cc3)cc2)c1NC(=O)N(C)C(C)C` [Compound 1-8, 1-{4′-[4-(3-Isopropyl-3-methyl-ureido)-3-methyl-isoxazol-5-yl]-biphenyl-4-yl}-cyclopropanecarboxylic acid] as the compound, how does the IC50 read?
The IC50 was 1 to 50 µM.

With `Cc1noc(-c2ccc(-c3ccc(C4(C(=O)O)CC4)cc3)cc2)c1NC(=O)N(C)[C@H](C)c1ccccc1` [Compound 1-9, 1-(4′-{3-Methyl-4-[3-methyl-3-((R)-1-phenyl-ethyl)-ureido]-isoxazol-5-yl}-biphenyl-4-yl)-cyclopropanecarboxylic acid] as the compound, how does the IC50 read?
The IC50 was 1 to 50 µM.

How did the IC50 turn out when `Cc1noc(-c2ccc(-c3ccc(C4(C(=O)O)CC4)cc3)cc2)c1NC(=O)N[C@H](C)c1ccccc1` [Compound 1-11, 1-(4′-{3-Methyl-4-[3-((R)-1-phenyl-ethyl)-ureido]-isoxazol-5-yl}-biphenyl-4-yl)-cyclopropanecarboxylic acid] was run?
Its IC50 is < 0.3 µM.

Which IC50 does the source give for `Cc1noc(-c2ccc(-c3ccc(C4(C(=O)O)CC4)cc3)cc2)c1NC(=O)NCc1ccccc1F` [Compound 1-12, 1-(4′-{4-[3-(2-Fluoro-benzyl)-ureido]-3-methyl-isoxazol-5-yl}-biphenyl-4-yl)-cyclopropanecarboxylic acid] here?
Its IC50 is < 0.3 µM.

Which IC50 does the source give for `Cc1noc(-c2ccc(-c3ccc(C4(C(=O)O)CC4)cc3)cc2)c1NC(=O)NCC(F)(F)F` [Compound 1-13, 1-(4′-{3-Methyl-4-[3-(2,2,2-trifluoro-ethyl)-ureido]-isoxazol-5-yl}-biphenyl-4-yl)-cyclopropanecarboxylic acid] here?
The IC50 was > 50 µM.

`Cc1noc(-c2ccc(-c3ccc(C4(C(=O)O)CC4)cc3)cc2)c1NS(=O)(=O)Cc1ccccc1Cl` [Compound 1-14, 1-{4′-[4-(2-Chloro-phenylmethanesulfonylamino)-3-methyl-isoxazol-5-yl]-biphenyl-4-yl}-cyclopropanecarboxylic acid] was tested. Which IC50 did it give?
Its IC50 is 0.3 to 1 µM.

For `Cc1noc(-c2ccc(-c3ccc(C4(C(=O)O)CC4)cc3)cc2)c1NC(=O)NCc1cc(C(F)(F)F)ccc1F` [Compound 1-15, 1-(4′-{4-[3-(2-Fluoro-5-trifluoromethyl-benzyl)-ureido]-3-methyl-isoxazol-5-yl}-biphenyl-4-yl)-cyclopropanecarboxylic acid], which IC50 is on record?
Its IC50 is 1 to 50 µM.

With `Cc1noc(-c2ccc(-c3ccc(C4(C(=O)O)CC4)cc3)cc2)c1NC(=O)NCc1c(F)cccc1F` [Compound 1-16, 1-(4′-{4-[3-(2,6-Difluoro-benzyl)-ureido]-3-methyl-isoxazol-5-yl}-biphenyl-4-yl)-cyclopropanecarboxylic acid] as the compound, how does the IC50 read?
Its IC50 is 0.3 to 1 µM.

Which IC50 does the source give for `Cc1noc(-c2ccc(-c3ccc(C4(C(=O)O)CC4)cc3)cc2)c1NC(=O)C(C)Oc1ccccc1` (centres unmarked) [Compound 1-17, 1-{4′-[3-Methyl-4-(2-phenoxy-propionylamino)-isoxazol-5-yl]-biphenyl-4-yl}-cyclopropanecarboxylic acid] here?
Its IC50 is 1 to 50 µM.

With `Cc1noc(-c2ccc(-c3ccc(C4(C(=O)O)CC4)cc3)cc2)c1NC(=O)NS(=O)(=O)c1ccccc1` [Compound 1-18, 1-{4′-[4-(3-Benzenesulfonyl-ureido)-3-methyl-isoxazol-5-yl]-biphenyl-4-yl}-cyclopropanecarboxylic acid] as the compound, how does the IC50 read?
Its IC50 is 1 to 50 µM.

Which IC50 does the source give for `Cc1noc(-c2ccc(-c3ccc(C4(C(=O)O)CC4)cc3)cc2)c1COC(=O)N[C@H](C)c1ccccc1` [Compound 1-19, 1-{4′-[3-Methyl-4-((R)-1-phenyl-ethylcarbamoyloxymethyl)-isoxazol-5-yl]-biphenyl-4-yl}-cyclopropanecarboxylic acid] here?
The IC50 was < 0.3 µM.

Which IC50 does the source give for `Cc1noc(-c2ccc(-c3ccc(C4(C(=O)O)CC4)cc3)cc2)c1COC(=O)NCc1ccccc1` [Compound 1-21, 1-[4′-(4-Benzylcarbamoyloxymethyl-3-methyl-isoxazol-5-yl)-biphenyl-4-yl]-cyclopropanecarboxylic acid] here?
Its IC50 is < 0.3 µM.

How did the IC50 turn out when `Cc1noc(-c2ccc(-c3ccc(C4(C(=O)O)CC4)cc3)cc2)c1COC(=O)N[C@@H](C)c1ccccc1` [Compound 1-22, 1-{4′-[3-Methyl-4-((S)-1-phenyl-ethylcarbamoyloxymethyl)-isoxazol-5-yl]-biphenyl-4-yl}-cyclopropanecarboxylic acid] was run?
The IC50 was 1 to 50 µM.

`Cc1noc(-c2ccc(-c3ccc(C4(C(=O)O)CC4)cc3)cc2)c1COC(=O)NC1CCCC1` [Compound 1-23, 1-[4′-(4-Cyclopentylcarbamoyloxymethyl-3-methyl-isoxazol-5-yl)-biphenyl-4-yl]-cyclopropanecarboxylic acid] was tested. Which IC50 did it give?
The IC50 was < 0.3 µM.

With `Cc1noc(-c2ccc(-c3ccc(C4(C(=O)O)CC4)cc3)cc2)c1CNCC1CC1` [Compound 1-27, 1-(4′-{4-[(Cyclopropylmethyl-amino)-methyl]-3-methyl-isoxazol-5-yl}-biphenyl-4-yl)-cyclopropanecarboxylic acid] as the compound, how does the IC50 read?
Its IC50 is 1 to 50 µM.

`Cc1noc(-c2ccc(-c3ccc(C4(C(=O)O)CC4)cc3)cc2)c1CNCC1CCCCC1` [Compound 1-28, 1-(4′-{4-[(Cyclohexylmethyl-amino)-methyl]-3-methyl-isoxazol-5-yl}-biphenyl-4-yl)-cyclopropanecarboxylic acid] was tested. Which IC50 did it give?
The IC50 was > 50 µM.

`Cc1noc(-c2ccc(-c3ccc(C4(C(=O)O)CC4)cc3)cc2)c1CNCc1ccccc1` [Compound 1-29, 1-{4′-[4-(Benzylamino-methyl)-3-methyl-isoxazol-5-yl]-biphenyl-4-yl}-cyclopropanecarboxylic acid] was tested. Which IC50 did it give?
Its IC50 is 1 to 50 µM.

Which IC50 does the source give for `CC(=O)N(CCc1ccccc1)Cc1c(C)noc1-c1ccc(-c2ccc(C3(C(=O)O)CC3)cc2)cc1` [Compound 1-30, 1-(4′-{4-[(Acetyl-phenethyl-amino)-methyl]-3-methyl-isoxazol-5-yl}-biphenyl-4-yl)-cyclopropanecarboxylic acid] here?
Its IC50 is < 0.3 µM.

How did the IC50 turn out when `Cc1noc(-c2ccc(-c3ccc(C4(C(=O)O)CC4)cc3)cc2)c1C=CCCc1ccccc1` [Compound 1-31, 1-{4′-[3-Methyl-4-(4-phenyl-but-1-enyl)-isoxazol-5-yl]-biphenyl-4-yl}-cyclopropanecarboxylic acid] was run?
The IC50 was < 0.3 µM.

Which IC50 does the source give for `Cc1noc(-c2ccc(-c3ccc(C4(C(=O)O)CC4)cc3)cc2)c1CC(=O)NC(C)c1ccccc1` (centres unmarked) [Compound 1-33, 1-(4′-{3-Methyl-4-[(1-phenyl-ethylcarbamoyl)-methyl]-isoxazol-5-yl}-biphenyl-4-yl)-cyclopropanecarboxylic acid] here?
Its IC50 is < 0.3 µM.

From patent US9624182B2, “Compounds as lysophosphatidic acid receptor antagonists” (Amira Pharmaceuticals, Inc., priority 2009, dated 2017)
